Values of other authors in patent EP1566168A1, “Dermo-cosmetic compositions for depigmenting and use of it” (priority 2004, dated 2005).

Assays:
peau = conditions: applied to the skin
[1] = oil

Structure (SMILES): CCCCCCCCCCCCCCCC(=O)OCc1cc(=O)c(OC(=O)CCCCCCCCCCCCCCC)co1 [acide dipalmitoylkojique, 2-palmitoyloxy 5-palmitoyloxy γ-pyrone]
- propriétés irritantes (peau): dépourvu de propriétés irritantes
- solubilité [1]: soluble dans l'huile
